The subject of this assay is HBV rcDNA in HepDE19 cells. Kind of assay: HepDE19 assay with bDNA quantitation of HBV rcDNA. In kind it is cell-based, hepatitis B virus. Conditions: HepDE19 assay, inhibition of rcDNA formation, bDNA quantitation; read-out: DE-19bDNA EC50.
For orientation: EC50 means the concentration needed to bring the measured effect to its halfway point. Take `CN(C(=O)c1cc2c(F)cccn2c1)C1CSCc2[nH]c(=O)c3cc(F)c(F)cc3c21` (single isomer, unassigned) [Compound 104, N-(8,9-Difluoro-6-oxo-1,4,5,6-tetrahydro-2H-thiopyrano[3,4-c]isoquinolin-1-yl)-8-fluoro-N-methylindolizine-2-carboxamide]: the EC50 was 10 nM.

Consider `CN(C(=O)c1cc2c(F)cccc2[nH]1)C1CNCc2[nH]c(=O)c3cc(F)c(F)cc3c21` (single isomer, unassigned) [Compound 105, N-(8,9-Difluoro-6-oxo-1,2,3,4,5,6-hexahydrobenzo[c][1,7]naphthyridin-1-yl)-4-fluoro-N-methyl-1H-indole-2-carboxamide], for which the EC50 worked out at 10 nM.

For the compound `CN(C(=O)c1cc2c(F)cccc2[nH]1)C1CNCc2[nH]c(=O)c3cc(F)c(F)cc3c21` (single isomer, unassigned) [Compound 106, N-(8,9-Difluoro-6-oxo-1,2,3,4,5,6-hexahydrobenzo[c][1,7]naphthyridin-1-yl)-4-fluoro-N-methyl-1H-indole-2-carboxamide], the EC50 was 100 nM.

Take `CN(C(=O)c1cc2ccc(F)cc2[nH]1)C1CNCc2[nH]c(=O)c3cc(F)c(F)cc3c21` (single isomer, unassigned) [Compound 107, N-(8,9-Difluoro-6-oxo-1,2,3,4,5,6-hexahydrobenzo[c][1,7]naphthyridin-1-yl)-6-fluoro-N-methyl-1H-indole-2-carboxamide]: the EC50 was determined as 20 nM.

On to `CN(C(=O)c1cc2ccc(F)cc2[nH]1)C1CNCc2[nH]c(=O)c3cc(F)c(F)cc3c21` (single isomer, unassigned) [Compound 108, N-(8,9-Difluoro-6-oxo-1,2,3,4,5,6-hexahydrobenzo[c][1,7]naphthyridin-1-yl)-6-fluoro-N-methyl-1H-indole-2-carboxamide], for which the EC50 stood at 1600 nM.

For the compound `CN(C(=O)c1cc2cccc(F)c2[nH]1)C1CNCc2[nH]c(=O)c3cc(F)c(F)cc3c21` (single isomer, unassigned) [Compound 113, N-(8,9-Difluoro-6-oxo-1,2,3,4,5,6-hexahydrobenzo[c][1,7]naphthyridin-1-yl)-7-fluoro-N-methyl-1H-indole-2-carboxamide], the EC50 turned out to be 430 nM.

In the case of `CN(C(=O)c1cc2cccc(F)c2[nH]1)C1CNCc2[nH]c(=O)c3cc(F)c(F)cc3c21` (single isomer, unassigned) [Compound 114, N-(8,9-Difluoro-6-oxo-1,2,3,4,5,6-hexahydrobenzo[c][1,7]naphthyridin-1-yl)-7-fluoro-N-methyl-1H-indole-2-carboxamide], the half-maximal effective concentration (EC50) was 20 nM.

Consider `CN(C(=O)c1cc2cc(F)c(F)cc2[nH]1)C1CNCc2[nH]c(=O)c3cc(F)c(F)cc3c21` (single isomer, unassigned) [Compound 115, N-(8,9-Difluoro-6-oxo-1,2,3,4,5,6-hexahydrobenzo[c][1,7]naphthyridin-1-yl)-5,6-difluoro-N-methyl-1H-indole-2-carboxamide], for which the EC50 worked out at 20 nM.

Turning to `CN(C(=O)c1cc2cc(F)c(F)cc2[nH]1)C1CNCc2[nH]c(=O)c3cc(F)c(F)cc3c21` (single isomer, unassigned) [Compound 116, N-(8,9-Difluoro-6-oxo-1,2,3,4,5,6-hexahydrobenzo[c][1,7]naphthyridin-1-yl)-5,6-difluoro-N-methyl-1H-indole-2-carboxamide], the EC50 came out at 1300 nM.

Consider `CN(C(=O)c1cc2c(F)cc(F)cc2[nH]1)C1CNCc2[nH]c(=O)c3cc(F)c(F)cc3c21` (single isomer, unassigned) [Compound 117, N-(8,9-Difluoro-6-oxo-1,2,3,4,5,6-hexahydrobenzo[c][1,7]naphthyridin-1-yl)-4,6-difluoro-N-methyl-1H-indole-2-carboxamide], for which the EC50 came to 20 nM.

As for `CN(C(=O)c1cc2c(F)cc(F)cc2[nH]1)C1CNCc2[nH]c(=O)c3cc(F)c(F)cc3c21` (single isomer, unassigned) [Compound 118, N-(8,9-Difluoro-6-oxo-1,2,3,4,5,6-hexahydrobenzo[c][1,7]naphthyridin-1-yl)-4,6-difluoro-N-methyl-1H-indole-2-carboxamide], the EC50 was determined as 1200 nM.

With `CN(C(=O)c1cc2c(F)c(F)ccc2[nH]1)C1CNCc2[nH]c(=O)c3cc(F)c(F)cc3c21` (single isomer, unassigned) [Compound 119, N-(8,9-Difluoro-6-oxo-1,2,3,4,5,6-hexahydrobenzo[c][1,7]naphthyridin-1-yl)-4,5-difluoro-N-methyl-1H-indole-2-carboxamide], the EC50 worked out at 10 nM.

Regarding `CN(C(=O)c1cc2c(F)c(F)ccc2[nH]1)C1CNCc2[nH]c(=O)c3cc(F)c(F)cc3c21` (single isomer, unassigned) [Compound 120, N-(8,9-Difluoro-6-oxo-1,2,3,4,5,6-hexahydrobenzo[c][1,7]naphthyridin-1-yl)-4,5-difluoro-N-methyl-1H-indole-2-carboxamide], the EC50 amounted to 850 nM.

As for `CN(C(=O)c1cc2ccc(Cl)cn2c1)C1CNCc2[nH]c(=O)c3cc(F)c(F)cc3c21` (single isomer, unassigned) [Compound 121, 6-Chloro-N-(8,9-difluoro-6-oxo-1,2,3,4,5,6-hexahydrobenzo[c][1,7]naphthyridin-1-yl)-N-methylindolizine-2-carboxamide], the EC50 worked out at 30 nM.

For the compound `CN(C(=O)c1cc2ccc(Cl)cn2c1)C1CNCc2[nH]c(=O)c3cc(F)c(F)cc3c21` (single isomer, unassigned) [Compound 122, 6-Chloro-N-(8,9-difluoro-6-oxo-1,2,3,4,5,6-hexahydrobenzo[c][1,7]naphthyridin-1-yl)-N-methylindolizine-2-carboxamide], the EC50 was found to be 1200 nM.

Regarding `CN(C(=O)c1cc2c(F)cccn2c1)C1C[S+]([O-])Cc2[nH]c(=O)c3cc(F)c(F)cc3c21` (single isomer, unassigned) [Compound 149, N-(8,9-Difluoro-3-oxido-6-oxo-1,4,5,6-tetrahydro-2H-thiopyrano[3,4-c]isoquinolin-1-yl)-8-fluoro-N-methylindolizine-2-carboxamide], the EC50 worked out at 150 nM.

As for `CN(C(=O)c1cc2c(F)cccn2c1)C1C[S+]([O-])Cc2[nH]c(=O)c3cc(F)c(F)cc3c21` (single isomer, unassigned) [Compound 150, N-(8,9-Difluoro-3-oxido-6-oxo-1,4,5,6-tetrahydro-2H-thiopyrano[3,4-c]isoquinolin-1-yl)-8-fluoro-N-methylindolizine-2-carboxamide], the 50% effective concentration (EC50) turned out to be 1100 nM.

Regarding `CN(C(=O)c1cc2c(F)cccn2c1)C1CS(=O)(=O)Cc2[nH]c(=O)c3cc(F)c(F)cc3c21` (single isomer, unassigned) [Compound 151, N-(8,9-Difluoro-3,3-dioxido-6-oxo-2,4,5,6-tetrahydro-1H-thiopyrano[3,4-c]isoquinolin-1-yl)-8-fluoro-N-methylindolizine-2-carboxamide], the EC50 is 3610 nM.

For `CN(C(=O)c1cc2c(F)cccn2c1)C1CS(=O)(=O)Cc2[nH]c(=O)c3cc(F)c(F)cc3c21` (single isomer, unassigned) [Compound 152, N-(8,9-Difluoro-3,3-dioxido-6-oxo-2,4,5,6-tetrahydro-1H-thiopyrano[3,4-c]isoquinolin-1-yl)-8-fluoro-N-methylindolizine-2-carboxamide], the 50% effective concentration (EC50) is 730 nM.

As for `CN(C(=O)c1cc2c(F)cccn2c1)C1CNCc2[nH]c(=O)c3cc(F)c(F)cc3c21` (single isomer, unassigned) [Compound 160, N-(8,9-Difluoro-6-oxo-1,2,3,4,5,6-hexahydrobenzo[c][1,7]naphthyridin-1-yl)-8-fluoro-N-methylindolizine-2-carboxamide], the EC50 came to 16200 nM.

For `CN(C(=O)c1cc2c(F)cccn2c1)C1CNCc2[nH]c(=O)c3cc(F)c(F)cc3c21` (single isomer, unassigned) [Compound 161, N-(8,9-Difluoro-6-oxo-1,2,3,4,5,6-hexahydrobenzo[c][1,7]naphthyridin-1-yl)-8-fluoro-N-methylindolizine-2-carboxamide], the EC50 came to 20 nM.

Consider `CN(C(=O)c1cc2cc(F)ccn2c1)C1CNCc2[nH]c(=O)c3cc(F)c(F)cc3c21` (single isomer, unassigned) [Compound 162, N-(8,9-Difluoro-6-oxo-1,2,3,4,5,6-hexahydrobenzo[c][1,7]naphthyridin-1-yl)-7-fluoro-N-methylindolizine-2-carboxamide], for which the EC50 stood at 13800 nM.

As to `CN(C(=O)c1cc2cc(F)ccn2c1)C1CNCc2[nH]c(=O)c3cc(F)c(F)cc3c21` (single isomer, unassigned) [Compound 163, N-(8,9-Difluoro-6-oxo-1,2,3,4,5,6-hexahydrobenzo[c][1,7]naphthyridin-1-yl)-7-fluoro-N-methylindolizine-2-carboxamide], the EC50 is 30 nM.

For the compound `CN(C(=O)c1cc(F)c(Br)c(F)c1)C1CNCc2[nH]c(=O)c3cc(F)c(F)cc3c21` (single isomer, unassigned) [Compound 164, 4-Bromo-N-(8,9-difluoro-6-oxo-1,2,3,4,5,6-hexahydrobenzo[c][1,7]naphthyridin-1-yl)-3,5-difluoro-N-methylbenzamide], the EC50 stood at 2880 nM.

With `CN(C(=O)c1cc(F)c(Br)c(F)c1)C1CNCc2[nH]c(=O)c3cc(F)c(F)cc3c21` (single isomer, unassigned) [Compound 165, 4-Bromo-N-(8,9-difluoro-6-oxo-1,2,3,4,5,6-hexahydrobenzo[c][1,7]naphthyridin-1-yl)-3,5-difluoro-N-methylbenzamide], the concentration for a half-maximal effect (EC50) is 20 nM.

With `CN(C(=O)c1cc(F)c(Br)c(F)c1)C1COCc2[nH]c(=O)c3cc(F)ccc3c21` (single isomer, unassigned) [Compound 166, 4-Bromo-3,5-difluoro-N-(8-fluoro-6-oxo-2,4,5,6-tetrahydro-1H-pyrano[3,4-c]isoquinolin-1-yl)-N-methylbenzamide], the EC50 was 1910 nM.

For the compound `CN(C(=O)c1cc(F)c(Br)c(F)c1)C1COCc2[nH]c(=O)c3cc(F)ccc3c21` (single isomer, unassigned) [Compound 167, 4-Bromo-3,5-difluoro-N-(8-fluoro-6-oxo-2,4,5,6-tetrahydro-1H-pyrano[3,4-c]isoquinolin-1-yl)-N-methylbenzamide], the concentration for a half-maximal effect (EC50) was 10 nM.

The record behind these values is patent publication US20240228504A1, “SUBSTITUTED TRICYCLIC AMIDES, ANALOGUES THEREOF, AND METHODS USING SAME” (Arbutus Biopharma Corporation, priority 2020, published 2024).
